Tested on: alpha-1 antitrypsin (A1AT) in the gut wash
Experiment: A1AT in the gut wash by ELISA as marker of intestinal permeability / barrier disruption in rotavirus-infected suckling rats
Type: in vivo, rat
Settings: compared to both the RV and REF groups (p<0.05), 3rd day of the diarrheal period (peak of diarrhea)
Description: Newborn rats were distributed into five groups of 24 animals each: the reference (REF) group, rotavirus-infected (RV) group, and 3 rotavirus-infected groups supplemented with: a) a mixture of scGOS and lcFOS (RV+GOS/FOS group); b) 2′-FL (RV+2′-FL group); and c) both scGOS/lcFOS and 2′-FL (RV+GOS/FOS+2′-FL group).
Suckling rats were orally administered once daily with the same normalized volume/body weight of all products (4.5 μL/g/day), from the second to the sixteenth day of life, corresponding to the strict lactation period. The RV+GOS/FOS group was supplemented with 0.8 g of scGOS/lcFOS/100 g of body weight. The RV+2′-FL group was supplemented with 0.2 g of 2′-FL/100 g of body weight. The RV+GOS/FOS+2′-FL group received both products at the same doses as when given separately and maintaining the volume of administration (4.5 μL/g/day). The REF and RV groups were administered with a matched volume of water. […]
The quantification of A1AT in the gut wash, as a marker of intestinal permeability, was performed with the rat SERPINA1/Alpha 1 Antitrypsin ELISA kit (LifeSpan Biosciences Inc., Seattle, Wash., USA) following the manufacturer's instructions. […]

In the case of 2′-fucosyllactose [2′-FL], the “concentration of A1AT in the gut wash” value is reported as “reduced” and the “concentration of A1AT in the gut wash” value (listed as 2′-fucosyllactose) is reported as “significant reduction”.
